The text below walks through data of patent US20180170941A1 (priority 2016, published 2018).

The structures appear in SMILES notation.

For the first experiment, the target named is T1, α5β3γ2 GABAA receptors (Ltk cell membranes) (Homo sapiens, UniProt P18507+P31644).
T1 construct: membranes
T1 sequence (P31644 32-462): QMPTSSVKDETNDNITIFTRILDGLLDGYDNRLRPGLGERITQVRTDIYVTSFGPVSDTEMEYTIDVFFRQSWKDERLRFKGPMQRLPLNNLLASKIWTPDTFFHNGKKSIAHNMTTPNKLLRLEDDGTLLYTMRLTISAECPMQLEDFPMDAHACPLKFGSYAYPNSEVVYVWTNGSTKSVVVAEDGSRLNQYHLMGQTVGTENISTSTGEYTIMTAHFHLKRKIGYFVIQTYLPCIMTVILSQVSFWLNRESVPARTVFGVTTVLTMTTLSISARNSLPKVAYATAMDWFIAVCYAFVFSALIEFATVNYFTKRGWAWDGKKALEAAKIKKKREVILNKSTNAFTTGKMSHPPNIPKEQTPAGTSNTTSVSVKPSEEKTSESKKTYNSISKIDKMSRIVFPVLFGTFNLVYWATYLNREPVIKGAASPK
T1 sequence (P28472 26-473 partner): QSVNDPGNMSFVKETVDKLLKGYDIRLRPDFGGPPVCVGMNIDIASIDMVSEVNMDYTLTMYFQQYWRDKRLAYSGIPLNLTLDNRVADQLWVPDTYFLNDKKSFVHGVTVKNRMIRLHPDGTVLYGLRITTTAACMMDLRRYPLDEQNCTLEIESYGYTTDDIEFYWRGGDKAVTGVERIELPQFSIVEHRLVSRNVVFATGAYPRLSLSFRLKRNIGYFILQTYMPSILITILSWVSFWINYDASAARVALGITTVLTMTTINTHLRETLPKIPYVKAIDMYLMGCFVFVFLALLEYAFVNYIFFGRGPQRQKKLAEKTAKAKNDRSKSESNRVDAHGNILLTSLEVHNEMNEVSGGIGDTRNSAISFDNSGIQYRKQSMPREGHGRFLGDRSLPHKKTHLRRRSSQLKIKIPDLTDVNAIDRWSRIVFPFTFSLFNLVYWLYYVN
T1 sequence (P18507 40-475): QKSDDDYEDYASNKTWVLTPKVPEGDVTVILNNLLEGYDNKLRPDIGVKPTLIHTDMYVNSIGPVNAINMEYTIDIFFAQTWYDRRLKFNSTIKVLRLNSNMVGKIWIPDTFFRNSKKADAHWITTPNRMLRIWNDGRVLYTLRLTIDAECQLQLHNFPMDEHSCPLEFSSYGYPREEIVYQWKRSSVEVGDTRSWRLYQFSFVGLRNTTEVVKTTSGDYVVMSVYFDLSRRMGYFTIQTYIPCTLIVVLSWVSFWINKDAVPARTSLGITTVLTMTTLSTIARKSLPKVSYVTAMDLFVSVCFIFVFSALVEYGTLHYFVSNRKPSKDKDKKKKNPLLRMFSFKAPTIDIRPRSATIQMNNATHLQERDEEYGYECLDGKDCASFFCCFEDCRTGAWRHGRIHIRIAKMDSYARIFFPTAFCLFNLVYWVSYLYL
The experiment in a line: Binding activity of test compounds on GABAAR: inhibition of [3H]Ro15-1788 binding.
Conditions: not given
The procedure:
Tissue culture and Membrane Preparation: The binding was performed on Ltk cells stably expressing GABAA receptors: α1β1γ2, α2β3γ2, α3β3γ2 and α5β3γ2 (provided by Merck Co., NJ, USA). Cells were seeded in 100 mm culture plates in DMEM/F12 medium containing 10% serum and antibiotics in 5% CO2 and allowed to grow for 1-2 days. GABAAR expression was then induced by dexamethasone as follows: 0.5 μM for 1 day for α5 containing and 2μM for 3 days for α1, α2 and α3 containing GABAARs. After induction, cells were collected by scraping into Dulbecco's Phosphate buffered saline (DPBS, pH 7.4, Invitrogen, Carlsbad, Calif., USA) and centrifuged at 150×g for 10 min. The pellet was washed twice by re-suspension and centrifugation. The cell pellets from at least 5 different preps were combined, suspended in the binding assay buffer (50 mM KH2P4; 1 mM EDTA; 0.2 M KCl, pH 7.4) and membranes prepared by sonication (3-5 times, 30 sec) using Branson Sonifier 150 (G.Heinmann, Germany). Protein content was determined using BCA assay (Bio-Rad Labs, Reinach, Switzerland) with Bovine Serum Albumin (Sigma Aldrich, St. Louis, Mo., USA) as the standard. Aliquots were prepared and stored at −20° C. for further use in binding assays.
Ligand Binding: Saturation binding curves were obtained by incubating membranes with increasing concentrations (0.01-8 nM) of [^3H]Ro15-1788 (Flumazepil, 75-85 Ci/mmol, PerkinElmer, MA, USA), with nonspecific binding measured in the presence of 10 μM diazepam.
All binding assays were performed for 1 h at 4° C. in assay buffer. The total assay volume was 0.5 ml containing 0.2 mg/ml protein for α5 and 0.4 mg/ml for α1, α2, and α3 containing GABAAR membranes. Incubations were terminated by filtration through GF/B filters using a 24-Cell Harvestor (Brandel, Gaithersburg, Md., USA) followed by 3 washes with ice-cold assay buffer. Filters were transferred to scintillation vials, 5 ml scintillation liquid added, vortex-mixed and kept in dark. Next day, radioactivity was obtained using a scintillation counter (Beckman Coulter, Brea, Calif., USA). All assays were performed in triplicate.
Data Analyses: Saturation and inhibition curves were obtained using GraphPad Prism software (GraphPad Software, Inc., CA, USA).
As for `Clc1ccc2c(c1)-c1nnc(COc3ccccc3)n1Cc1c(C3OCCO3)ncn1-2` [Compound 204], the Ki is above 1000 nM.

On to `COCc1nnc2n1Cc1c(C3=NCC(C)(C)CO3)ncn1-c1ccc(Cl)cc1-2` [Compound 239], for which the inhibition constant Ki is above 1000 nM.

Staying with this experiment, now noted: GABA α5 Binding Ki Values, inhibition of [3H]Ro15-1788 binding; reported as ranges.
As for `COc1ccc2c(c1)-c1nnc(COc3cccc(F)c3)n1Cc1c(C#N)ncn1-2` [Compound 196], the Ki is below 100 nM.

`N#Cc1ncn2c1Cn1c(COc3ccccc3)nnc1-c1cc(Cl)ccc1-2` [Compound 197] showed a Ki below 100 nM.

Turning to `COCc1nnc2n1Cc1c(-c3nc(C)no3)ncn1-c1ccc(Cl)cc1-2` [Compound 198], the Ki was below 100 nM.

On to `FC(F)=Cc1ncn2c1Cn1c(COc3ccccc3)nnc1-c1cc(Cl)ccc1-2` [Compound 199], for which the Ki is below 100 nM.

On to `FC(F)c1ncn2c1Cn1c(COc3ccccc3)nnc1-c1cc(Cl)ccc1-2` [Compound 200], for which the inhibitory constant (Ki) was 100 to 1000 nM.

In turn, `COc1ccc2c(c1)-c1nnc(COC(C)(C)C)n1Cc1c(-c3noc(C(C)C)n3)ncn1-2` [Compound 201] gave a Ki of 100 to 1000 nM.

Consider `Clc1ccc2c(c1)-c1nnc(COc3ccccc3)n1Cc1c(Br)ncn1-2` [Compound 202], for which the Ki is below 100 nM.

The molecule `COc1ccc2c(c1)-c1nnc(COCc3cccnc3)n1Cc1c(-c3noc(C(C)C)n3)ncn1-2` [Compound 203] displayed a Ki below 100 nM.

`C#Cc1ncn2c1Cn1c(COc3ccccc3)nnc1-c1cc(Cl)ccc1-2` [Compound 205] registered a Ki below 100 nM.

Regarding `COCc1nnc2n1Cc1c(-c3nc(C(C)C)no3)ncn1-c1ccc(Cl)cc1-2` [Compound 206], the inhibition constant Ki is below 100 nM.

`COc1ccc2c(c1)-n1nnc(Cc3ccccc3)c1Cc1c(C#N)ncn1-2` [Compound 207] yielded a Ki below 100 nM.

As to `COc1ccc2c(c1)-n1nnc(Cc3ccccc3Cl)c1Cc1c(C#N)ncn1-2` [Compound 208], the Ki is below 100 nM.

Turning to `COc1ccc2c(c1)-n1nnc(Cc3cccc(Cl)c3)c1Cc1c(C#N)ncn1-2` [Compound 209], the Ki is below 100 nM.

For `COc1ccc2c(c1)-n1nnc(Cc3cccnc3)c1Cc1c(C#N)ncn1-2` [Compound 210], the Ki was below 100 nM.

In turn, `CCOCc1nnc2n1Cc1c(Br)ncn1-c1ccc(Cl)cc1-2` [Compound 216] had a Ki below 100 nM.

`COCc1nnc2n1Cc1c(Br)ncn1-c1ccc(Cl)cc1-2` [Compound 217] returned an inhibition constant Ki below 100 nM.

As to `C#Cc1ncn2c1Cc1c(C(=O)c3ccc(F)cc3)nnn1-c1cc(OC)ccc1-2` [Compound 218], the Ki is below 100 nM.

For `C#Cc1ncn2c1Cc1c(C(=O)c3ccc(Cl)cc3)nnn1-c1cc(OC)ccc1-2` [Compound 219], the Ki is 100 to 1000 nM.

The molecule `C=Cc1ncn2c1Cc1c(Cc3ccccc3)nnn1-c1cc(OC)ccc1-2` [Compound 220] came in with an inhibition constant Ki of 100 to 1000 nM.

`C=Cc1ncn2c1Cc1c(Cc3ccc(C)cc3)nnn1-c1cc(OC)ccc1-2` [Compound 221] came in with an inhibition constant Ki above 1000 nM.

For the molecule `COc1ccc2c(c1)-n1nnc(COc3ccc(F)cc3)c1Cc1c(C#N)ncn1-2` [Compound 222], the Ki is below 100 nM.

Regarding `COc1ccc2c(c1)-n1nnc(COc3ccccc3F)c1Cc1c(C#N)ncn1-2` [Compound 223], the Ki was below 100 nM.

The molecule `COc1ccc2c(c1)-n1nnc(COc3ccccc3)c1Cc1c(C#N)ncn1-2` [Compound 224] registered an inhibition constant Ki below 100 nM.

`COc1ccc2c(c1)-n1nnc(COc3cccc(Br)c3)c1Cc1c(C#N)ncn1-2` [Compound 225] had a Ki below 100 nM.

Consider `N#Cc1ncn2c1Cc1c(COc3ccccc3)nnn1-c1cc(Cl)ccc1-2` [Compound 226], for which the inhibitory constant (Ki) is below 100 nM.

On to `N#Cc1ncn2c1Cc1c(COc3cccc(F)c3)nnn1-c1cc(Cl)ccc1-2` [Compound 227], for which the Ki is below 100 nM.

As to `Fc1ccc2c(c1)-n1cnc(Br)c1Cc1c(Cc3ccccc3)nnn1-2` [Compound 229], the Ki was above 1000 nM.

For the molecule `CC(C)c1nc(-c2ncn3c2Cc2c(C(=O)c4ccc(F)cc4)nnn2-c2ccc(F)cc2-3)no1` [Compound 230], the Ki is below 100 nM.

The molecule `CC(C)c1nc(-c2ncn3c2Cc2c(Cc4ccc(F)cc4)nnn2-c2ccc(F)cc2-3)no1` [Compound 231] had a Ki above 1000 nM.

In turn, `COc1ccc2c(c1)-c1nnc(COc3ccccc3)n1Cc1c(Br)ncn1-2` [Compound 232] came in with a Ki below 100 nM.

For `COCc1nnc2n1Cc1c(-c3cc(C)no3)ncn1-c1ccc(Cl)cc1-2` [Compound 233], the Ki was below 100 nM.

`COc1ccc2c(c1)-c1nnc(COc3cccnc3)n1Cc1c(Br)ncn1-2` [Compound 235] had a Ki below 100 nM.

Turning to `C#Cc1ncn2c1Cn1c(COc3ccccc3)nnc1-c1cc(OC)ccc1-2` [Compound 236], the inhibitory constant (Ki) is below 100 nM.

The molecule `COCc1nnc2n1Cc1c(C3=NCCCO3)ncn1-c1ccc(Cl)cc1-2` [Compound 237] came in with a Ki of 100 to 1000 nM.

For the molecule `COCc1nnc2n1Cc1c(C3=NCCO3)ncn1-c1ccc(Cl)cc1-2` [Compound 238], the Ki is below 100 nM.

In turn, `COCc1nnc2n1Cc1c(C3=N[C@@H](C(C)C)CO3)ncn1-c1ccc(Cl)cc1-2` [Compound 240] gave a Ki of 100 to 1000 nM.

Molecule `C#Cc1ncn2c1Cn1c(COc3cccnc3)nnc1-c1cc(OC)ccc1-2` [Compound 241] showed an inhibition constant (Ki) below 100 nM.

`COCc1nnc2n1Cc1c(C3=NC(c4ccccc4)CO3)ncn1-c1ccc(Cl)cc1-2` (stereo not shown) [Compound 242] registered a Ki below 100 nM.

The molecule `COCc1nnc2n1Cc1c(-c3nc(C)co3)ncn1-c1ccc(Cl)cc1-2` [Compound 244] displayed a Ki below 100 nM.

For `COCc1nnc2n1Cc1c(-c3nc(-c4ccccc4)co3)ncn1-c1ccc(Cl)cc1-2` [Compound 245], the Ki was below 100 nM.

For `COCc1nnc2n1Cc1c(-c3nc(C(C)C)co3)ncn1-c1ccc(Cl)cc1-2` [Compound 246], the Ki lay within 100 to 1000 nM.

For `CNC(=O)c1nnn2c1Cc1c(Br)ncn1-c1ccc(OC)cc1-2` [Compound 247], the Ki was 100 to 1000 nM.

In the case of `COc1ccc2c(c1)-n1nnc(C(=O)N3CCCC3)c1Cc1c(Br)ncn1-2` [Compound 248], the inhibitory constant (Ki) is 100 to 1000 nM.

Turning to `COCc1nnc2n1Cc1c(-c3ncco3)ncn1-c1ccc(Cl)cc1-2` [Compound 249], the Ki is below 100 nM.

As for `COc1ccc2c(c1)-n1nnc(CN3CCCC3)c1Cc1c(C#N)ncn1-2` [Compound 250], the Ki is above 1000 nM.

`COc1ccc2c(c1)-n1nnc(CN3CCCCC3)c1Cc1c(C#N)ncn1-2` [Compound 251] showed a Ki above 1000 nM.

`CCN(CC)Cc1nnn2c1Cc1c(C#N)ncn1-c1ccc(OC)cc1-2` [Compound 252] gave a Ki above 1000 nM.

With `COc1ccc2c(c1)-n1nnc(CN3CCC(c4ccccc4)CC3)c1Cc1c(C#N)ncn1-2` [Compound 253], the inhibition constant (Ki) is above 1000 nM.

Molecule `CCOCc1nnc2n1Cc1c(-c3nc(C(C)C)no3)ncn1-c1ccc(Cl)cc1-2` [Compound 254] gave a Ki below 100 nM.

In turn, `CCOCc1nnc2n1Cc1c(-c3nc(C)no3)ncn1-c1ccc(Cl)cc1-2` [Compound 255] registered an inhibition constant (Ki) below 100 nM.

`C#Cc1ncn2c1Cn1c(COC)nnc1-c1cc(Cl)ccc1-2` [Compound 256] returned an inhibition constant Ki below 100 nM.

Molecule `COc1ccc2c(c1)-n1nncc1Cc1c(-c3nc(C(C)C)no3)ncn1-2` [Compound 257] had an inhibitory constant (Ki) below 100 nM.

Molecule `COc1ccc2c(c1)-n1nncc1Cc1c(-c3nc(C)no3)ncn1-2` [Compound 258] yielded a Ki below 100 nM.

`CCOCc1nnc2n1Cc1c(C3=NC(C)CO3)ncn1-c1ccc(Cl)cc1-2` (stereo not shown) [Compound 259] displayed a Ki below 100 nM.

As for `CCOCc1nnc2n1Cc1c(C3=NC(c4ccccc4)CO3)ncn1-c1ccc(Cl)cc1-2` (stereo not shown) [Compound 260], the Ki was below 100 nM.

`C#Cc1ncn2c1Cn1c(COCC)nnc1-c1cc(Cl)ccc1-2` [Compound 261]: the inhibition constant Ki is below 100 nM.

Consider `COc1ccc2c(c1)-n1nnc(/C=C/c3ccccc3)c1Cc1c(C#N)ncn1-2` [Compound 262], for which the inhibition constant (Ki) is above 1000 nM.

As for `COCc1nnc2n1Cc1c(C3=N[C@H](c4ccccc4)CO3)ncn1-c1ccc(Cl)cc1-2` [Compound 263], the Ki is below 100 nM.

The molecule `COCc1nnc2n1Cc1c(C3=N[C@@H](c4ccccc4)CO3)ncn1-c1ccc(Cl)cc1-2` [Compound 264] returned an inhibition constant (Ki) below 100 nM.

Turning to `COCc1nnc2n1Cc1c(C3=N[C@@H](Cc4ccccc4)CO3)ncn1-c1ccc(Cl)cc1-2` [Compound 265], the Ki was in the range of 100 to 1000 nM.

The molecule `COCc1nnc2n1Cc1c(C3=N[C@@H](CC4CCCCC4)CO3)ncn1-c1ccc(Cl)cc1-2` [Compound 266] yielded an inhibition constant Ki of 100 to 1000 nM.

In turn, `COCc1nnc2n1Cc1c(C3=N[C@H](CC(C)C)CO3)ncn1-c1ccc(Cl)cc1-2` [Compound 267] showed a Ki of 100 to 1000 nM.

The term Ki denotes a dissociation constant, usually derived from enzyme kinetics or from competition with a known ligand. Low readings indicate higher affinity, high ones lower affinity.
